Assay results: US20180312463A1 (The Procter & Gamble Company, priority 2015, published 2018)
Structures can show the parent of a compound that is named as a salt.

Target: human TRPM8 (UniProt Q8R4D5)
Assay: TRPM8 Protocol-FLIPR Assay (EC50 analysis of sensate analogs using TRPM8 activation)
Type: cell-based
Conditions: HEK-293 cells stably transfected with human TRPM8, intracellular Ca2+ by Fluo-4 AM fluorescence
Experimental: (§1) The term “TRPM8 agonist”, as used herein, refers to any compound, which when added to a TRPM8 receptor, according to the FLIPR method, as discussed herein, produces any increase in fluorescence over background.
(§2) TRPM8 Protocol-FLIPR Assay
(§3) To determine whether TRPM8 is activated, the intracellular calcium ion (Ca^2+) level was measured from transfected cells with the TRPM8 receptor sequence (SEQ ID NO:). […] Trypsin was inactivated by addition of 8 ml growth medium. Cells were transferred to a 50 ml tube and centrifuged at 850 rpm for 3 minutes to remove medium. After centrifugation, a pellet of cells was formed in the bottom of the tube separating them from the supernatant solution. […] Fluo-4 AM is a fluorescent dye used for quantifying cellular Ca^2+ concentrations in the 100 nM to 1 microM range. At the end of 30 minutes, 45 ml of assay buffer (1× HBSS (Hank's Balanced Salt Solution), 20 mM HEPES (4-(2-Hydroxyethyl)-1-piperazineethanesulfonic acid)) was added to wash cells and the resulting mixture was then centrifuged at 850 rpm for 3 minutes to remove excess buffer and Fluo-4 AM calcium indicator.
(§4) The pelleted cells were re-suspended in 10 ml assay buffer and 90 μl aliquots (50,000 cells) per well delivered to a 96-well assay plate containing 10 μl of test compounds (1 mM in assay buffer, final concentration 100 μM) or buffer control and incubated at room temperature for 30 minutes. After 30 minutes, a plate was placed into a fluorometric imaging plate reader (FLIPR384 from Molecular Devices, Sunnyvale, Calif.) and basal fluorescence recorded (excitation wave length 488 nm and emission wave length 510 nm). Then 20 μl of 100 mM of TRPM8 agonist WS5 coolant in the assay buffer was added and fluorescence recorded. For determining the direct effect of test compounds on TRPM8, fluorescence was measured immediately after addition of each compound (TABLE 7).

Row | EC50 | TRPM8 (EC50 values) | Compound
1 |  | Too high to measure | CC(C)[C@@H]1CC[C@@H](C)C[C@H]1C(=O)NC[C@H](NC(=O)OC(C)(C)C)c1ccccc1 [Molecule 52]
2 |  | Too high to measure | CC(C)[C@@H]1CC[C@@H](C)C[C@H]1C(=O)NCCNC(=O)[C@@H]1C[C@H](C)CC[C@H]1C(C)C [Molecule 53]
3 |  | Too high to measure | CC(C)[C@@H]1CC[C@@H](C)C[C@H]1C(=O)NC[C@@H](NC(=O)[C@@H](N)Cc1ccccc1)c1ccccc1 [Molecule 55]
4 |  | Too high to measure | CC(C)[C@@H]1CC[C@@H](C)C[C@H]1C(=O)NCCN(CCN)CCN.Cl.Cl [Molecule 56]
5 |  | Too high to measure | CC(C)[C@@H]1CC[C@@H](C)C[C@H]1C(=O)NC[C@@H](NC(=O)[C@@H](C)NC(=O)OC(C)(C)C)c1ccccc1 [Molecule 59]

More lines, now with the values behind:

Row | Compound | EC50 | TRPM8 (EC50 values)
6 | CC(C)[C@@H]1CC[C@@H](C)C[C@H]1C(=O)NC[C@@H](N)c1ccccc1Cl [Example 34, hydrochloride] | 770 nM | 
7 | CCCCCCCCCCCCCCCC(=O)N[C@H](CNC(=O)[C@@H]1C[C@H](C)CC[C@H]1C(C)C)c1ccccc1 [Molecule 54] |  | Too high to measure
8 | CC(C)[C@@H]1CC[C@@H](C)C[C@H]1C(=O)NC[C@H](NC(=O)[C@@H](C)NC(=O)OC(C)(C)C)c1ccccc1 [Molecule 57] |  | Too high to measure
9 | CC(C)[C@@H]1CC[C@@H](C)C[C@H]1C(=O)NC[C@@H](NC(=O)OC(C)(C)C)c1ccccc1 [Molecule 58] |  | Too high to measure

Target: human TRPM8
Assay: as above
Type: cell-based
Conditions: HEK-293 cells stably transfected with human TRPM8, intracellular Ca2+ by Fluo-4 AM fluorescence
Experimental: as §1, §2, §3, §4

Row | EC50 | Compound
10 | 20 nM | CC(C)[C@@H]1CC[C@@H](C)C[C@H]1C(=O)NC[C@@H](NC(=O)CN)c1ccccc1Cl
11 | 28.3 nM | CC(C)[C@@H]1CC[C@@H](C)C[C@H]1C(=O)NC[C@@H](NC(=O)[C@H](C)N)C1CCCCC1
12 | 9 nM | CC(C)[C@@H]1CC[C@@H](C)C[C@H]1C(=O)NC[C@@H](NC(=O)[C@H](C)N)c1ccccc1 [Example 7]
13 | 374 nM | CC(C)[C@@H]1CC[C@@H](C)C[C@H]1C(=O)NC[C@H](O)c1ccccc1 [Example 29]
14 | 2.7 nM | CC(C)[C@@H]1CC[C@@H](C)C[C@H]1C(=O)NC[C@@H](NC(=O)[C@H](C)N)c1ccccc1 [Molecule 2]

More lines, now with the values behind:

Row | Compound | EC50
15 | CC(C)[C@@H]1CC[C@@H](C)C[C@H]1C(=O)NC[C@H](Cc1ccccc1)NC(=O)CN [Example 16] | 58 nM
16 | CC(C)[C@@H]1CC[C@@H](C)C[C@H]1C(=O)NCCNC(=O)CNC(=O)OC(C)(C)C [Example 49, tert-butyl (2-((2-((1R,2S,5R)-2-isopropyl-5-methylcyclohexane-1-carboxamido)ethyl)amino)-2-oxoethyl)carbamate] | 40000 nM

Same assay, conditions: HEK-293 cells stably transfected with human TRPM8, unit inferred

Row | Compound | EC50
17 | CC(C)[C@@H]1CC[C@@H](C)C[C@H]1C(=O)NC[C@@H](NC(=O)[C@H](C)NC(=O)OC(C)(C)C)c1ccccc1 [Example 43, dihydrochloride] | 3000 nM
18 | CC(C)[C@@H]1CC[C@@H](C)C[C@H]1C(=O)NC[C@@H](NC(=O)CN)c1ccccc1 [Molecule 1] | < 2 nM

Test system: not listed separately
Assay: Sensory evaluation of coolant activity: panelists brushed with dentifrice and rated cooling intensity
Type: in vivo, human
Conditions: dentifrice, up to 12 hours after brushing
Experimental: Dentifrices were prepared using conventional methods, such as the protocols described in U.S. Pat. No. 8,747,814, which contained no coolant (SAMPLE A) or having a coolant from TABLE 7 (SAMPLES B and C), in a flavor (peppermint) at 10 parts per million (ppm).
Sensory evaluation studies of coolant activity were conducted using a methodology patterned after the techniques described in M.C. Meilgaard, et al., Sensory Evaluation Techniques, 4th Ed. (2007). Five panelists brushed with a dentifrice from TABLE 8, having no coolant (SAMPLE A) or having a coolant from TABLE 7 (SAMPLES B and C), for two minutes, in a flavor (peppermint) at 10 parts per million (ppm). After brush expectoration, panelists then rinsed their mouth with 15 ml of an aqueous rinse and expectorated.

Row | Compound | cooling response over time after brushing (summary of TABLE 9)
19 | CC(C)[C@@H]1CC[C@@H](C)C[C@H]1C(=O)NC[C@@H](NC(=O)[C@@H](C)N)c1ccccc1 [Molecule 17, (1R,2S,5R)-N-((S)-2-((R)-2-Aminopropanamido)-2-phenylethyl)-2-isopropyl-5-methylcyclohexane-1-carboxamide] | high cooling over the course of 12 hours
20 | CC(C)[C@@H]1CC[C@@H](C)C[C@H]1C(=O)NC[C@H](NC(=O)[C@@H](C)N)c1ccccc1 [Molecule 33, (1R,2S ,5R)-N-((R)-2-((R)-2-Aminopropanamido)-2-phenylethyl)-2-isopropyl-5-methylcyclohexane-1-carboxamide] | trailed off after 30 minutes

Test system: not given
Assay: not given
Conditions: in vivo; cited from earlier work

Row | Compound | cooling threshold (concentration where the cooling effect could be clearly recognized)
21 | CC(C)[C@@H]1CC[C@@H](C)C[C@H]1O [L-menthol] | about 800 ppb
22 | CC(C)[C@@H]1CC[C@@H](C)C[C@@H]1O [Molecule 1-neomenthol, 1-neomenthol] | about 3,000 ppb
23 | CC(C)[C@@H]1CC[C@@H](C)C[C@@H]1O [d-neomenthol] | about 25,000 ppb
